How the values were obtained:
Type in all cases: in vivo
[1] = tested on: Fallopia convolvulus; test: Post-emergence herbicidal action; details: 80 g of a.i./ha
Protocol: (§1) Seeds of mono- and dicotyledonous harmful plants are placed in sandy loam in cardboard pots, covered with soil and grown in the greenhouse under good growth conditions. Two to three weeks after sowing, the test plants are treated at the three-leaf stage. The compounds according to the invention, which are formulated as wettable powders or as emulsion concentrates, are sprayed at an application rate of 600 to 800 l of water/ha (converted) in a dosage of 80 grams per hectare onto the surface of the green plant parts. The visual scoring of the damage to the harmful plants is carried out 3-4 weeks after the treatment. Here, the compounds of Nos. 1-39, 1-40, 1-1382 and 1-2091 show an activity of at least 90% against Echinochloa crus galli. The compounds of Nos. 1-3, 1-44 and 1-2091 shown an activity of at least 90% against Abutilon theophrasti. The compounds of Nos. 1-39, 1-40 and 1-1382 show an activity of at least 90% against Veronica persica. The compounds of Nos. 1-3, 1-38, 1-39, 1-1406 and 1-1407 show an activity of at least 90% against Stellaria media.
(§2) The comparative tests of Tables 1 to 24 below show the superiority of the compounds according to the invention over the compounds known from the prior art.
(§3) • ABUTH Abutilon theophrasti ALOMY Alopecurus myosuroides • AMARE Amaranthus retroflexus AVEFA Avena fatua • CHEAL Chenopodium album ECHCG Echinochloa crus galli • GALAP Galium aparine LOLMU Lolium multiflorum • MATIN Matricaria inodora PHBPU Pharbitis purpureum • POLCO Fallopia convolvulus STEME Stellaria media • VERPE Veronica persica VIOTR Viola tricolor • XANST Xanthium strumarium Crop Plants • GLXMA Glycine max (soybeans) TRZAS Triticum aestivum (wheat) • ZEAMX Zea mays (corn)

[2] = tested on: Pharbitis purpureum; test: Post-emergence herbicidal action; details: 80 g of a.i./ha
Protocol: as §1, §2, §3

[3] = tested on: Triticum aestivum (wheat); test: Post-emergence damage of crop plants; details: crop plant wheat
Protocol: as §1, with “The compounds according to the invention, which are formulated as wettable powders or as emulsion concentrates, are sprayed at an application rate of 600 to 800 l of water/ha (converted) in a dosage of 80 grams per hectare onto the surface of the green plant parts.” left out
as §2, §3

[4] = tested on: Veronica persica; test: Post-emergence herbicidal action; details: read-out: Herbicidal activity in % against VERPE; for pest or weed control at 80 g/ha: 80 g of a.i./ha, visual scoring 3-4 weeks after treatment; for pest or weed control at 20 g/ha: 20 g of a.i./ha
Protocol: as §1, §2, §3

[5] = tested on: Viola tricolor; test: Post-emergence herbicidal action; details: read-out: Herbicidal activity in % against VIOTR; for pest or weed control at 80 g/ha: 80 g of a.i./ha; for pest or weed control at 20 g/ha: 20 g of a.i./ha
Protocol: as §1, §2, §3

[6] = tested on: Zea mays (corn); test: Post-emergence damage of crop plants; details: 20 g of a.i./ha, crop plant corn
Protocol: as §1, with “The compounds according to the invention, which are formulated as wettable powders or as emulsion concentrates, are sprayed at an application rate of 600 to 800 l of water/ha (converted) in a dosage of 80 grams per hectare onto the surface of the green plant parts.” left out
as §2, §3

[7] = tested on: Galium aparine; test: Post-emergence herbicidal action
Protocol: as §1, with “The compounds according to the invention, which are formulated as wettable powders or as emulsion concentrates, are sprayed at an application rate of 600 to 800 l of water/ha (converted) in a dosage of 80 grams per hectare onto the surface of the green plant parts.” left out
as §2, §3

[8] = tested on: Galium aparine; test: Pre-emergence herbicidal action; details: 320 g of a.i./ha
Text: (§4) Seeds or rhizome pieces of mono- and dicotyledonous harmful plants are placed in sandy loam in pots of a diameter of 9 to 13 cm and covered with soil. The herbicides, formulated as emulsifiable concentrates or dusts, are applied to the surface of the covering soil in the form of aqueous dispersions or suspensions or emulsions at an application rate of 300 to 800 l of water/ha (converted), at a dosage of 320 grams per hectare. For further cultivation of the plants, the pots are then kept in a greenhouse under optimum conditions. The visual scoring of the damage to the harmful plants is carried out 3-4 weeks after the treatment. Here, the compounds of Nos. 1-3, 1-15, 1-44 and 1-1407 show an activity of at least 90% against Echinochloa crus galli. The compounds of Nos. 1-15, 1-45, 1-1407 and 1-1419 show an activity of at least 90% against Abutilon theophrasti. The compounds of Nos. 1-3, 1-45, 1-1406 and 1-1418 show an activity of at least 90% against Amaranthus retroflexus. The compounds of Nos. 1-44, 1-1406, 1-1407 and 1-1419 show an activity of at least 90% against Stellaria media.
as §2, §3

[9] = tested on: Chenopodium album; test: Pre-emergence herbicidal action; details: 320 g of a.i./ha
Text: as §4, §2, §3

[10] = tested on: Glycine max (soybeans); test: Pre-emergence damage of crop plants; details: 320 g of a.i./ha, crop plant soybeans
Text: as §4, §2, §3

[11] = tested on: Triticum aestivum (wheat); test: Pre-emergence damage of crop plants; details: 320 g of a.i./ha, crop plant wheat
Text: as §4, §2, §3

[12] = tested on: Stellaria media; test: Pre-emergence herbicidal action; details: 80 g of a.i./ha
Text: as §4, with “at a dosage of 320 grams per hectare.” left out
as §2, §3

[13] = tested on: Veronica persica; test: Pre-emergence herbicidal action; details: 80 g of a.i./ha
Text: as §4, with “at a dosage of 320 grams per hectare.” left out
as §2, §3

[14] = tested on: Amaranthus retroflexus; test: Pre-emergence herbicidal action; details: 80 g of a.i./ha
Text: as §4, with “at a dosage of 320 grams per hectare.” left out
as §2, §3

[15] = tested on: Matricaria inodora; test: Post-emergence herbicidal action; details: Tripleurospermum inodorum, 80 g of a.i./ha, read-out: Herbicidal activity in % against MATIN
Protocol: as §1, §2, §3

[16] = tested on: Stellaria media; test: Post-emergence herbicidal action; details: Stellaria media, 80 g of a.i./ha, visual scoring 3-4 weeks after treatment, read-out: Herbicidal activity in % against STEME
Protocol: as §1, §2, §3

[17] = tested on: Xanthium strumarium; test: Post-emergence herbicidal action; details: 80 g of a.i./ha, read-out: Herbicidal activity in % against XANST
Protocol: as §1, §2, §3

CSc1c(S(C)(=O)=O)ccc(C(=O)c2c(C3CC3)nn(C)c2O)c1C [drawing 32, reference compound]
Herbicidal activity in % against POLCO [1]: 50%
Herbicidal activity in % against PHBPU [2]: 40%

COCC[S+]([O-])c1c(S(C)(=O)=O)ccc(C(=O)c2c(C3CC3)nn(C)c2O)c1C (centres unmarked) [drawing 33]
Damage to TRZAS ([3]; 80 g of a.i./ha): 20
pest or weed control at 80 g/ha [4]: 100%
pest or weed control at 80 g/ha [5]: 70%

COCCS(=O)(=O)c1c(S(C)(=O)=O)ccc(C(=O)c2c(C3CC3)nn(C)c2O)c1C [drawing 35]
Damage to ZEAMX [6]: 0
Damage to TRZAS ([3]; 20 g of a.i./ha): 0
pest or weed control at 20 g/ha [4]: 90%
pest or weed control at 20 g/ha [5]: 70%
Herbicidal activity in % against GALAP ([7]; 20 g of a.i./ha): 50%

CCS(=O)(=O)c1c(S(C)(=O)=O)ccc(C(=O)c2c(C3CC3)nn(C)c2O)c1C [drawing 36, reference compound]
Damage to ZEAMX [6]: 10
Damage to TRZAS ([3]; 20 g of a.i./ha): 80
pest or weed control at 20 g/ha [4]: 20%
pest or weed control at 20 g/ha [5]: 20%
Herbicidal activity in % against GALAP ([7]; 20 g of a.i./ha): 20%

Cc1c(C(=O)c2c(C3CC3)nn(C)c2O)ccc(S(C)(=O)=O)c1S(=O)(=O)CC1CC1 [drawing 37]
Herbicidal activity in % GALAP [8]: 100%
Herbicidal activity in % CHEAL [9]: 100%
Damage to GLXMA [10]: 0
Damage to TRZAS [11]: 0

Cc1c(C(=O)c2c(C3CC3)nn(C)c2O)ccc(Cl)c1SCC1CC1 [drawing 43]
Herbicidal activity in % against STEME [12]: 90%
Herbicidal activity in % against VERPE [13]: 70%
Herbicidal activity in % against AMARE [14]: 80%

Cn1nc(C2CC2)c(C(=O)c2ccc(Cl)c(S(=O)(=O)CC3CC3)c2Cl)c1O [drawing 57]
pest or weed control at 80 g/ha [15]: 50%
pest or weed control at 80 g/ha [16]: 100%
pest or weed control at 80 g/ha [4]: 90%
pest or weed control at 80 g/ha [17]: 90%
Herbicidal activity in % against GALAP ([7]; 80 g of a.i./ha): 70%

Cn1nc(C2CC2)c(C(=O)c2ccc(Cl)c(S(C)(=O)=O)c2Cl)c1O [drawing 58, reference compound]
pest or weed control at 80 g/ha [15]: 0%
pest or weed control at 80 g/ha [16]: 80%
pest or weed control at 80 g/ha [4]: 60%
pest or weed control at 80 g/ha [17]: 70%
Herbicidal activity in % against GALAP ([7]; 80 g of a.i./ha): 40%

Cc1c(C(=O)c2c(C3CC3)nn(C)c2O)ccc(S(C)(=O)=O)c1[S+](C)[O-] (centres unmarked) [reference compound]
Damage to TRZAS ([3]; 80 g of a.i./ha): 50
pest or weed control at 80 g/ha [4]: 80%
pest or weed control at 80 g/ha [5]: 60%

CSc1c(Cl)ccc(C(=O)c2c(C3CC3)nn(C)c2O)c1C [reference compound]
Herbicidal activity in % against STEME [12]: 80%
Herbicidal activity in % against VERPE [13]: 50%
Herbicidal activity in % against AMARE [14]: 70%
